# Assay results from patent US20170189507A1, “NOVEL PEPTIDES AND COMBINATION OF PEPTIDES FOR USE IN IMMUNOTHERAPY AGAINST VARIOUS CANCERS” (immatics biotechnologies GmbH, priority 2015, published 2017).
# System: CD8+ T cells
# Assay: In vitro immunogenicity: T-cell priming with aAPCs loaded with peptide/MHC complexes and anti-CD28 antibody, pMHC multimer readout
# Format: cell-based, human
# Settings: in vitro immunogenicity of HLA class I peptides; peptide-specific multimer+ wells after aAPC priming of CD8+ T cells
# Procedure: In an aspect, the peptides are pre-screened for immunogenicity before being included in the warehouse. By way of example, and not limitation, the immunogenicity of the peptides included in the warehouse is determined by a method comprising in vitro T-cell priming through repeated stimulations of CD8+ T cells from healthy donors with artificial antigen presenting cells loaded with peptide/MHC complexes and anti-CD28 antibody.
# In order to obtain information regarding the immunogenicity of the TUMAPs of the present invention, the inventors performed investigations using an in vitro T-cell priming assay based on repeated stimulations of CD8+ T cells with artificial antigen presenting cells (aAPCs) loaded with peptide/MHC complexes and anti-CD28 antibody.
# In order to perform in vitro stimulations by artificial antigen presenting cells loaded with peptide-MHC complex (pMHC) and anti-CD28 antibody, the inventors first isolated CD8+ T cells from fresh HLA-A*02 leukapheresis products via positive selection using CD8 microbeads (Miltenyi Biotec, Bergisch-Gladbach, Germany) of healthy donors obtained from the University clinics Mannheim, Germany, after informed consent.
# PBMCs and isolated CD8+ lymphocytes were incubated in T-cell medium (TCM) until use consisting of RPMI-Glutamax (Invitrogen, Karlsruhe, Germany) supplemented with 10% heat inactivated human AB serum (PAN-Biotech, Aidenbach, Germany), 100 U/ml Penicillin/100 μg/ml Streptomycin (Cambrex, Cologne, Germany), 1 mM sodium pyruvate (CC Pro, Oberdorla, Germany), 20 μg/ml Gentamycin (Cambrex). 2.5 ng/ml IL7 (PromoCell, Heidelberg, Germany) and 10 U/ml IL-2 (Novartis Pharma, Nurnberg, Germany) were also added to the TCM at this step.
# Generation of pMHC/anti-CD28 coated beads, T-cell stimulations and readout was performed in a highly defined in vitro system using four different pMHC molecules per stimulation condition and 8 different pMHC molecules per readout condition.
# The purified co-stimulatory mouse IgG2a anti human CD28 Ab 9.3 (Jung et al., 1987) was chemically biotinylated using Sulfo-N-hydroxysuccinimidobiotin as recommended by the manufacturer (Perbio, Bonn, Germany). Beads used were 5.6 μm diameter streptavidin coated polystyrene particles (Bangs Laboratories, Illinois, USA).
# pMHC used for positive and negative control stimulations were A*0201/MLA-001 (peptide […] (SEQ ID NO. 303) from modified Melan-A/MART-1) and A*0201/DDX5-001 ([…] from DDX5, SEQ ID NO. 304), respectively.
# 800.000 beads/200 μl were coated in 96-well plates in the presence of 4×12.5 ng different biotin-pMHC, washed and 600 ng biotin anti-CD28 were added subsequently in a volume of 200 μl. Stimulations were initiated in 96-well plates by co-incubating […] CD8+ T cells with 2×10^5 washed coated beads in 200 μl TCM supplemented with 5 ng/ml IL-12 (PromoCell) for 3 days at 37° C. Half of the medium was then exchanged by fresh TCM supplemented with 80 U/ml IL-2 and incubating was continued for 4 days at 37° C. This stimulation cycle was performed for a total of three times. For the pMHC multimer readout using 8 different pMHC molecules per condition, a twodimensional combinatorial coding approach was used as previously described (Andersen et al., 2012) with minor modifications encompassing coupling to 5 different fluorochromes. Finally, multimeric analyses were performed by staining the cells with Live/dead near IR dye (Invitrogen, Karlsruhe, Germany), CD8-FITC antibody clone SK1 (BD, Heidelberg, Germany) and fluorescent pMHC multimers. For analysis, a BD LSRII SORP cytometer equipped with appropriate lasers and filters was used. Peptide specific cells were calculated as percentage of total CD8+ cells. Evaluation of multimeric analysis was done using the FlowJo software (Tree Star, Oregon, USA). In vitro priming of specific multimer+ CD8+ lymphocytes was detected by comparing to negative control stimulations.
row,Substance,Wells positive [%]
1,5 (GIVAHIQEV; listed as Homo sapiens) [compound 5],+ (<20% = +)
2,18 (ILLDLTDNRL; listed as Homo sapiens) [compound 18],+ (<20% = +)
3,23 (SLFSDEFKV; listed as Homo sapiens) [compound 23],++++ (>=70% = ++++)
4,26 (ALQEELTEL; listed as Homo sapiens) [compound 26],+ (<20% = +)
5,29 (YLLDPSITL; listed as Homo sapiens) [compound 29],+ (<20% = +)
6,31 (TITETTVEV; listed as Homo sapiens) [compound 31],+ (<20% = +)
7,35 (FLLPFSTVYL; listed as Homo sapiens) [compound 35],+ (<20% = +)
8,90 (FLQDLEQRL; listed as Homo sapiens) [compound 90],+ (<20% = +)
9,141 (FLDKVLVAA; listed as Homo sapiens) [compound 141],+ (<20% = +)
10,149 (ILNTHITEL; listed as Homo sapiens) [compound 149],+ (<20% = +)
11,196 (LYIDRPLPYL; listed as Homo sapiens) [compound 196],++++ (>=70% = ++++)
12,197 (EYSLFPGQVVI; listed as Homo sapiens) [compound 197],+ (<20% = +)
13,207 (AYVVFVSTL; listed as Homo sapiens) [compound 207],+ (<20% = +)
14,218 (YYKSTSSAF; listed as Homo sapiens) [compound 218],+ (<20% = +)
15,230 (KLQNIMMLL; listed as Homo sapiens) [compound 230],++++ (>=70% = ++++)
16,268 (QYLGQIQHI; listed as Homo sapiens) [compound 268],+ (<20% = +)
17,269 (YFIDSTNLKTHF; listed as Homo sapiens) [compound 269],+ (<20% = +)
18,285 (HYPPVQVLF; listed as Homo sapiens) [compound 285],+ (<20% = +)

# System: HLA-A*24
# Assay: MHC binding assay (UV-ligand exchange, beta2m ELISA), HLA-A*24
# Parameters: species or system human
# Settings: MHC class I binding score, peptide exchange yield
# Source text: Candidate peptides for T cell based therapies according to the present invention were further tested for their MHC binding capacity (affinity). The individual peptide-MHC complexes were produced by UV-ligand exchange, where a UV-sensitive peptide is cleaved upon UV-irradiation, and exchanged with the peptide of interest as analyzed. Only peptide candidates that can effectively bind and stabilize the peptide-receptive MHC molecules prevent dissociation of the MHC complexes. To determine the yield of the exchange reaction, an ELISA was performed based on the detection of the light chain ([…] of stabilized MHC complexes. The assay was performed as generally described in Rodenko et al. (Rodenko et al., 2006).
# 96 well MAXISorp plates (NUNC) were coated over night with 2 ug/ml streptavidin in PBS at room temperature, washed 4× and blocked for 1 h at 37° C. in 2% BSA containing blocking buffer. Refolded HLA-A*02:01/MLA-001 monomers served as standards, covering the range of 15-500 ng/ml. Peptide-MHC monomers of the UV-exchange reaction were diluted 100 fold in blocking buffer. Samples were incubated for 1 h at 37° C., washed four times, incubated with 2 ug/ml HRP conjugated anti-β2m for 1 h at 37° C., washed again and detected with TMB solution that is stopped with […]. Absorption was measured at 450 nm. Candidate peptides that show a high exchange yield (preferably higher than 50%, most preferred higher than 75%) are generally preferred for a generation and production of antibodies or fragments thereof, and/or T cell receptors or fragments thereof, as they show sufficient avidity to the MHC molecules and prevent dissociation of the MHC complexes.
row,Substance,Peptide exchange
1,160 (VYTLDIPVL; listed as Homo sapiens) [compound 160],++++ (>=75% = ++++)
2,161 (IYLVSIPEL; listed as Homo sapiens) [compound 161],++++ (>=75% = ++++)
3,166 (YYVESGKLF; listed as Homo sapiens) [compound 166],++++ (>=75% = ++++)
4,168 (KYQDILETI; listed as Homo sapiens) [compound 168],++++ (>=75% = ++++)
5,172 (TYTTVPRVAF; listed as Homo sapiens) [compound 172],++++ (>=75% = ++++)
6,173 (IYSWILDHF; listed as Homo sapiens) [compound 173],++++ (>=75% = ++++)
7,175 (YYEVHKELF; listed as Homo sapiens) [compound 175],++++ (>=75% = ++++)
8,177 (VYPWLGALL; listed as Homo sapiens) [compound 177],++++ (>=75% = ++++)
9,179 (MYDSYWRQF; listed as Homo sapiens) [compound 179],++++ (>=75% = ++++)
10,181 (LYLDIINLF; listed as Homo sapiens) [compound 181],++++ (>=75% = ++++)
11,184 (VFQNFPLLF; listed as Homo sapiens) [compound 184],++++ (>=75% = ++++)

# Further lines, results first:
row,Peptide exchange,Substance
1,++++ (>=75% = ++++),186 (IFPQFLYQF; listed as Homo sapiens) [compound 186]
2,++++ (>=75% = ++++),187 (TYLRDQHFL; listed as Homo sapiens) [compound 187]
3,++++ (>=75% = ++++),192 (SYALLTYMI; listed as Homo sapiens) [compound 192]
4,++++ (>=75% = ++++),193 (RFHPTPLLL; listed as Homo sapiens) [compound 193]
5,+ (<20% = +),194 (EFGSLHLEFL; listed as Homo sapiens) [compound 194]
6,++++ (>=75% = ++++),195 (TYSVSFPMF; listed as Homo sapiens) [compound 195]
7,++++ (>=75% = ++++),202 (VYWDSAGAAHF; listed as Homo sapiens) [compound 202]
8,++++ (>=75% = ++++),210 (IYTMIYRNL; listed as Homo sapiens) [compound 210]
9,++++ (>=75% = ++++),211 (YYLEVGKTLI; listed as Homo sapiens) [compound 211]
10,++++ (>=75% = ++++),216 (QYSSVFKSL; listed as Homo sapiens) [compound 216]
11,++++ (>=75% = ++++),217 (FFPPTRQMGLLF; listed as Homo sapiens) [compound 217]
12,++++ (>=75% = ++++),227 (IFLDYEAGTLSF; listed as Homo sapiens) [compound 227]
13,++++ (>=75% = ++++),228 (KYTSWYVAL; listed as Homo sapiens) [compound 228]
14,++++ (>=75% = ++++),267 (KYMVYPQTF; listed as Homo sapiens) [compound 267]
15,++++ (>=75% = ++++),271 (LYHDIFSRL; listed as Homo sapiens) [compound 271]
16,++++ (>=75% = ++++),272 (QYLQDAYSF; listed as Homo sapiens) [compound 272]
17,++++ (>=75% = ++++),274 (AYLHSHALI; listed as Homo sapiens) [compound 274]
18,++++ (>=75% = ++++),276 (VYGFQWRHF; listed as Homo sapiens) [compound 276]
19,++++ (>=75% = ++++),277 (VYQGHTALL; listed as Homo sapiens) [compound 277]
20,++++ (>=75% = ++++),278 (RYISDQLFTNF; listed as Homo sapiens) [compound 278]
21,++++ (>=75% = ++++),280 (RYPDNLKHLYL; listed as Homo sapiens) [compound 280]
22,++++ (>=75% = ++++),282 (KFVDSTFYL; listed as Homo sapiens) [compound 282]
23,++++ (>=75% = ++++),289 (KYPVEWAKF; listed as Homo sapiens) [compound 289]
